Read-outs that look alike come from different tables or passages of the source.
What was measured:
[1] = tested on: Pseudomonas aeruginosa strain PCM 2058; assay: Bacterial growth inhibition IC50 in LB medium; type: cell-based; conditions: 8-h time point, Luria-Bertani medium, 37 °C; ± SEM; read-out: IC50 for growth inhibition, Pa 2058
Experimental: (§1) Bacterial growth inhibition was measured on a Spark 10 M (Tecan, AT) microplate reader as described previously (Swietnicki et al., 2019). Briefly, a bacterial culture in LB medium grown at 37 °C overnight was diluted 1:100 with a fresh medium and aliquoted into a 96-well plate at 98 μL/well with a multichannel pipette. A 2 μL aliquot of compound serially diluted in DMSO was added in triplicates, the plate was covered with a lid or a transparent plate sealer, and incubated at 37 °C for up to 24 h. Bacterial growth was monitored by following an A600 reading every hour. After the experiment, the data were stored in Excel format, transferred into KaleidaGraph software (Synergy Software, Reading, PA, USA) and the A600 was plotted versus log [Concentration]. The IC50 values were determined by fitting the readings at the 8 h time point to a sigmoidal model of inhibition. Each experiment was repeated at least 3 times to verify the values.

[2] = tested on: Pseudomonas aeruginosa strain PCM 499; assay: Bacterial growth inhibition IC50 in LB medium; type: cell-based; conditions: 8-h time point, Luria-Bertani medium, 37 °C; ± SEM; read-out: IC50 for growth inhibition, Pa499
Experimental: as §1

[3] = tested on: Yersinia enterocolitica strain PCM 2080; assay: Bacterial growth inhibition IC50 in LB medium; type: cell-based; conditions: 8-h time point, Luria-Bertani medium, 37 °C; ± SEM; read-out: IC50 for growth inhibition, Ye 2080
Experimental: as §1

[4] = tested on: Yersinia enterocolitica strain PCM 2090; assay: Bacterial growth inhibition IC50 in LB medium; type: cell-based; conditions: 8-h time point, Luria-Bertani medium, 37 °C; ± SEM; read-out: IC50 for growth inhibition, Ye 2090
Experimental: as §1

[5] = tested on: Y. enterocolitica strain PCM 2080 grown in the presence of 200 μM compounds; assay: Cross-resistance generation: IC50 on compound-evolved bacteria; type: cell-based, Yersinia enterocolitica; conditions: read-out: Resistance (IC50 value against the selected compound)
Experimental: as §1
The evolution was performed in parallel using blood agar and LB agar plates prepared in-house. Briefly, a 200 μL aliquot of 200 μM compound in PBS was added to a fresh agar plate, spread on the surface, and left to dry in a BSC cabinet for approximately 30 min. After that time, a single colony from an overnight culture on a plate was spread on the surface before the plate was covered with a lid and left at 37 °C to incubate overnight. The procedure was repeated at least nine times for each plate. After the last step, a single colony was selected from a plate and added to a 3 mL aliquot of LB medium. […] Dual selection on different plates was necessary in cases where the growth inhibition was too strong to obtain single colonies on LB agar plates. […] Until then, the colonies were supplied from bacteria grown on the blood agar plates.

BALB/3T3 = assay: Antiproliferative SRB assay; type: cell-based, mouse; conditions: SRB method, 72 h of treatment; highest concentration 100 μM; read-out: IC50 72h (95% CI) BALB/3T3
From the text: (§2) Rockville, Maryland, USA).

MCF 10A = assay: Antiproliferative SRB assay; type: cell-based, human; conditions: SRB method, 72 h of treatment; highest concentration 100 μM; read-out: IC50 72h (95% CI) MCF 10A
From the text: as §2

[6] = tested on: drug-resistant Y. enterocolitica strain 2080; assay: SEM of drug-resistant bacteria; type: cell-based, Yersinia enterocolitica; conditions: for bacterial growth seen under SEM: bacteria passaged at least nine times with 200 μM compound; for mechanism of biological activity: from SEM, 200 μM
Experimental: Scanning electron microscopy of Y. enterocolitica was performed at a low accelerating voltage of the primary beam without any coating or heavy-metal contrasting of the samples, as described in previous work. Bacteria were applied onto a polished silicon crystal chip and allowed to adhere for 30 min. The samples were fixed with 2.5% glutaraldehyde in 0.1 M cacodylate buffer for 30 min at 4 °C, then washed in water and dehydrated in a series of methanol solutions (25%-50%-75%-100%-100%) in one-hour steps at 4 °C. Samples underwent critical point drying with methanol exchanged for liquid CO2 in an automatized approach, (CPD300 AUTO, Leica Microsystems, Vienna, Austria) and imaged with a cross-beam scanning electron microscope equipped with a Schottky field-emission cathode (Auriga 60, Carl Zeiss, Oberkochen, Germany) at 0.8 kV accelerating voltage. Thus, the imaging was performed within a mode referred to as the low-voltage, field-emission scanning electron microscopy (LV-FESEM) of nonlabeled, critical point-dried samples.
Figure 3 Scanning electron microscopy of drug-resistant Y. enterocolitica strain 2080. […] After exposure to compound 1 for nine passages, there were only fragments of organic debris visible (B). In the presence of compounds 7 and 3, there were multiple bacteria observed with apparently normal morphology. Scale bars: (A) and (B) 500 nm, (C) and (E) 2.5 μm, (D) and (F) 1 μm.

[7] = tested on: zebrafish (Danio rerio) larvae; assay: Danio rerio toxicity assay (modified Fish Embryo Toxicity test); type: in vivo; conditions: for mortality (share of the population): 10 μM, day 5 post-exposure; for mortality rate: day 5; for visible morphological deformities: concentrations up to 10 μM
Experimental: To determine acute toxicity of examined compounds modified Fish Embryo Toxicity (FET) test was performed of zebrafish (Danio rerio) according to OECD Test Guideline 236. Briefly, the collected embryos were transferred to a Petri dish with E3 medium (5 mM NaCl, 0.33 mM MgCl2, 0.33 mM CaCl2, 0.17 mM KCl; pH 7.2) and then placed in 24-well plates, 5 embryos per well, 10 per group. Stock solutions of boron cluster compounds were prepared in DMSO. In these experiments, three series of solutions with different concentrations were employed, which were freshly prepared by dissolving stock solutions in the E3 solution each time directly before addition to the wells. The solutions were changed once daily and the embryos were maintained in the incubator at 28.5 °C. Zebrafish embryos were evaluated for developmental abnormalities and viability at 24 h intervals for up to 5 days using a stereomicroscope (Zeiss Axio Vert, ZEISS, Germany). Morphological deformities of the heart, dorsal string, and tail development were measured and compared with the control embryos. Image analysis was performed to determine the percentage of dead and malformed embryos over time using Zeiss software. The experiment was performed in triplicate. Fish were taken from own fish facility of The Centre of Experimental Medicine, Medical University of Lublin. For the experiment AB OMD strain was used.
Figure 4 Toxicity of selected compounds on zebrafish (Danio rerio) larvae. Fish larvae were grown in 6-well plates in the presence of compounds for up to 5 days and the morphological deformities were analyzed from images as described under Materials and Methods. Representative photographs are shown. S, scoliosis; TA, tail autophagy; PE, pericardial edema.
Figure 5 Mortality rates of selected compounds on zebrafish (Danio rerio) larvae. The population size (n = 10) from Figure 4 was followed up to day 5 as described under Materials and Methods. Representative graphs are shown.

MRSA = conditions: after 20 passages; cited from earlier work
mammalian cell culture = conditions: cited from earlier work
[8] = strain PCM 2080 grown with 200 μM compound 1 for at least nine generations
[9] = strain PCM 2080 grown with 200 μM compound 3 for at least nine generations
[10] = strain PCM 2080 grown with 200 μM compound 7 for at least nine generations
[11] = 2 μM, up to day 5 post-exposure
[12] = concentrations lower than 20 μM except 2 μM

Row | Substance | IC50 [1] | IC50 [2] | IC50 [3] | IC50 [4] | IC50 (BALB/3T3) | IC50 (MCF 10A) | other results
1 | Cs[8-O-iso-Bu-8′-I-3,3′-Co(1,2-C2B9H10)2] [Compound 3] | 59 ± 30 µM | 16.9 ± 8 µM | 4.2 ± 1.8 µM | 3.4 ± 1 µM | 10.2 µM | 52.5 µM | IC50 [5, 8]: 4.7 ± 1 µM; IC50 [5, 9]: 10.4 ± 3 µM; IC50 [5, 10]: 3.7 ± 1.2 µM; bacterial growth seen under SEM [6]: did not inhibit the growth of bacteria; mechanism of biological activity [6]: blockage of bacterial cell division
2 | Cs[8-O-n-Bu-8′-I-3,3′-Co(1,2-C2B9H10)2] [Compound 2] | 28 ± 8 µM | 12.1 ± 4 µM | 4.3 ± 1.5 µM | 2.4 ± 0.7 µM | 3.7 µM | 16.1 µM | –
3 | [8-NH2-iso-Bu-8′-I-3,3′-Co(1,2-C2B9H10)2] [Compound 7] | 24.7 ± 8 µM | 58.7 ± 20 µM | 1.8 ± 0.8 µM | 6.2 ± 0.7 µM | 0.024 µM | 0.115 µM | IC50 [5, 8]: > 37 µM; IC50 [5, 9]: > 100 µM; IC50 [5, 10]: > 100 µM; bacterial growth seen under SEM [6]: did not inhibit the growth of bacteria; mechanism of biological activity [6]: blockage of bacterial cell division
4 | Cs[8-O-cyclo-C6H11-8′-I-3,3′-Co(1,2-C2B9H10)2] [Compound 5] | 52.1 ± 15 µM | 52.1 ± 10 µM | 7.5 ± 4 µM | 3.3 ± 1 µM | 11.7 µM | 46.3 µM | mortality (share of the population) [7]: ≤ 20%; morphological deformities ([7]; 20 μM): deformities of dorsal string; mortality rate ([7]; 20 μM): 20%; visible morphological deformities [7]: did not induce visible deformities
5 | [8-NH2-CHEt2-8′-I-3,3′-Co(1,2-C2B9H10)2] [Compound 8] | – | – | – | – | 0.023 µM | 0.045 µM | –
6 | 8-ethoxy-8′-iodo derivative of cobalt bis(1,2-dicarbollide) [Compound K121] | – | – | – | – | – | – | generation of resistance (MRSA): not able to generate resistance
7 | Cs[8-O-CHEt2-8′-I-3,3′-Co(1,2-C2B9H10)2] [Compound 4] | 72 ± 30 µM | 52.9 ± 20 µM | 6.7 ± 2.3 µM | 5.3 ± 1 µM | 11.3 µM | 50 µM | mortality [7, 11]: none of the animals died; mortality (share of the population) [7]: ≤ 20%; mortality ([7]; 20 μM, day 4): lethal to all larvae; mortality rate [7, 12]: 20%; visible morphological deformities [7]: did not induce visible deformities
8 | [8-NH2-cyclo-C6H11-8′-I-3,3′-Co(1,2-C2B9H10)2] [Compound 9] | – | – | – | – | 0.067 µM | 0.082 µM | –
9 | 3,3′-commo-bis[closo-1,2-dicarba-3-cobaltadodecaborate](1-) [COSAN, reference compound] | – | – | – | – | – | – | concentration that reversibly blocks cell growth (mammalian cell culture): above 100 µM
10 | [8-NH2-n-Bu-8′-I-3,3′-Co(1,2-C2B9H10)2] [Compound 6] | – | – | – | – | 0.29 µM | – | –
11 | Cs[8,8′-I2-3,3′-Co(1,2-C2B9H10)2] [Compound 1] | 28.3 ± 6 µM | 11.4 ± 1 µM | 4.8 ± 3 µM | 2.5 ± 1.4 µM | 17 µM | 59.8 µM | IC50 [5, 8]: 2.6 ± 0.2 µM; IC50 [5, 9]: 4 ± 1 µM; IC50 [5, 10]: 3.1 ± 1 µM; mortality [7, 11]: none of the animals died; mortality ([7]; 20 μM, day 4): lethal to all larvae; mortality rate [7, 12]: 20%; visible morphological deformities [7]: induced visible morphological deformities; bacterial growth seen under SEM [6]: generally inhibited bacterial growth; mechanism of biological activity [6]: most likely being bactericidal; change of ED50 versus COSAN (mammalian cell culture; mammalian cells): decreases the ED50 values approximately threefold

— publication PMC8267647, “Metallacarborane Derivatives Effective against Pseudomonas aeruginosa and Yersinia enterocolitica” (International Journal of Molecular Sciences, 2021)
